Experimental data published in patent publication US5496824A, “Cyclopropane derivatives and anti-viral agent containing the same” (Ajinomoto Co., Inc., priority 1993, dated 1996).
≈ marks a conversion by molar mass, not a printed value.

Columns and labels:
Format in all cases: cell-based
HSV-1 (Tomioka strain) = assay: Anti-viral activity against herpes simplex virus, neutral red dye-uptake method in Vero cells; details: Human alphaherpesvirus 1, 72 h, 3 days at 37° C., read-out: ID50 (the source's name)
Method: (§1) The anti-viral activity of the prepared compounds against herpes simplex virus was measured by neutral red dye-uptake method (J. Infect. Dis. 148: 868 (1983)) with modification. Precisely, threefold dilutions of the compounds were prepared in 100 μl volumes of culture medium in the wells of a 96-well culture plate. Sixty microliters of a suspension of Vero cells (3×10^5 cells/ml) were then dispensed into each well. HSV-1 (Tomioka strain) was diluted in medium to approximately 100 TCID50 /40 μl, as determined by prior titration in a similar dye uptake assay, and 40 μl of viral suspension were added to the respective wells. Control wells containing no test compound and no virus (cell control) or no cells (blank control) were included in each plate. After 3 days incubation at 37° C. in 5% CO2 atmosphere, 50 μl of neutral red dye (0.15% in saline, pH 5.5) was dispensed into each well and the cultures were incubated for a further 45 min at 37° C. Unincorporated dye was removed by rinsing with PBS. The dye incorporated by viable cells was then eluted into 100 μl per well of citrate ethanol buffer (pH 4.2; equal volumes of 0.1 M Sorensen citrate buffer and ethanol), and absorbance at 540 nm of the solution was measured. […] As a comparative compound, acyclovir was used.

in vitro = details: african green monkey, vero cells
Method: as §1

[1] = system: varicella zoster virus (Kawaguchi strain); assay: Anti-viral activity against varicella zoster virus, plaque reduction assay in human embryonic lung (HEL) cells; details: Human alphaherpesvirus 3, 72 h, 3 days, read-out: PI50 (50% plaque decrease concentration)
Method: The activity of test compounds against varicella zoster virus was measured by plaque reduction assay. Confluent monolayers of human embryonic lung (HEL) cells grown in 6-well plates were infected with varicella zoster virus (Kawaguchi strain) in such a way that each well might have 100 plaque-forming units. After incubated at 37 C. for one hour in 5% CO2 atmosphere, the inoculum was removed and 3 ml of maintenance media containing the test compound having a varying concentration was added thereto. The incubation was continued for 3 days. After incubation, the cells were fixed and stained, the number of plaques was counted microscopically. In comparison to the control, the 50% plaque decrease concentration (PI50) of the test compound was determined. As a comparative compound, acyclovir was used.

| Structure (SMILES) | EC50 (HSV-1 (Tomioka strain)) | CC50 at 72 h (in vitro) | IC50 [1] |
| --- | --- | --- | --- |
| O=c1[nH]c(=O)n(C[C@]2(CO)C[C@H]2CO)cc1I [Example 4, 1-[1'S,2'R-bis(hydroxymethyl)-cyclopropan-1'-yl]methyl-5-iodo-2,4(1H,3H)-pyrimidinedione] | 90 µg/mL (≈ 256 µM) | > 500 µg/mL | 9.3 µg/mL (≈ 26.4 µM) |
| O=c1[nH]c(=O)n(C[C@]2(CO)C[C@H]2CO)cc1F [Example 1, 1-[1'S,2'R-bis(hydroxymethyl)-cyclopropan-1'-yl]methyl-5-fluoro-2,4(1H,3H)pyrimidinedione] | > 500 µg/mL | > 500 µg/mL | > 100 µg/mL |
| O=c1[nH]c(=O)n(C[C@]2(CO)C[C@H]2CO)cc1Cl [Example 2, 1-[1'S,2'R-bis(hydroxymethyl)-cyclopropan-1'-yl]methyl-5-chloro-2,4(1H,3H)-pyrimidinedione] | 295 µg/mL (≈ 1130 µM) | > 500 µg/mL | > 100 µg/mL |
| O=c1[nH]c(=O)n(C[C@]2(CO)C[C@H]2CO)cc1Br [Example 3, 1-[1'S,2'R-bis(hydroxymethyl)-cyclopropan-1'-yl]methyl-5-bromo-2,4(1H,3H)-pyrimidinedione] | 215 µg/mL (≈ 705 µM) | > 500 µg/mL | 97 µg/mL (≈ 318 µM) |
| O=c1[nH]c(=O)n(C[C@]2(CO)C[C@H]2CO)cc1C(F)(F)F [Example 5, 1-[1'S,2'R-bis(hydroxymethyl)-cyclopropan-1'-yl]methyl-5-trifluoromethyl-2,4(1H,3H)-pyrimidinedione] | > 500 µg/mL | 234 µg/mL (≈ 795 µM) | > 100 µg/mL |
| Nc1nc2c(ncn2COCCO)c(=O)[nH]1 [acyclovir, reference compound] | 0.8 µg/mL (≈ 3.55 µM) | > 500 µg/mL | – |

Second part, led by results:

| EC50 (HSV-1 (Tomioka strain)) | Structure (SMILES) | CC50 at 72 h (in vitro) | IC50 [1] |
| --- | --- | --- | --- |
| 24.3 µg/mL (≈ 95.6 µM) | CCc1cn(C[C@]2(CO)C[C@H]2CO)c(=O)[nH]c1=O [Example 13, 1-[1'S,2'R-bis(hydroxymethyl)-cyclopropan-1'-yl]methyl-5-ethyl-2,4(1H,3H)-pyrimidinedione] | > 500 µg/mL | 95 µg/mL (≈ 374 µM) |
| 3.2 µg/mL (≈ 12.7 µM) | C=Cc1cn(C[C@]2(CO)C[C@H]2CO)c(=O)[nH]c1=O [Example 6, 1-[1'S,2'R-bis(hydroxymethyl)cyclopropan-1'-yl]methyl-5-ethenyl-2,4(1H,3H)-pyrimidinedione] | > 500 µg/mL | 11.1 µg/mL (≈ 44 µM) |
| 325 µg/mL (≈ 1230 µM) | CC#Cc1cn(C[C@]2(CO)C[C@H]2CO)c(=O)[nH]c1=O [Example 12, 1-[1'S,2'R-bis(hydroxymethyl)-cyclopropan-1'-yl]methyl-5-(1-propynyl)-2,4(1H,3H)-pyrimidinedione] | > 500 µg/mL | 19.8 µg/mL (≈ 74.9 µM) |
| > 500 µg/mL | O=c1[nH]c(=O)n(C[C@@]2(CO)C[C@@H]2CO)cc1/C=C/Br [Example 14, 1-[1'R,2'S-bis(hydroxymethyl)-cyclopropan-1'-yl]methyl-5-[(E)-2-bromoethenyl]-2,4(1H,3H)-pyrimidinedione] | > 500 µg/mL | 7.4 µg/mL (≈ 22.3 µM) |
| 14.5 µg/mL (≈ 43.8 µM) | O=c1[nH]c(=O)n(C[C@]2(CO)C[C@H]2CO)cc1/C=C/Br [Example 8, 1-[1'S,2'R-bis(hydroxymethyl)-cyclopropan-1'-yl]methyl-5-[(E)-2-bromoethenyl]-2,4(1H,3H)-pyrimidinedione] | > 500 µg/mL | 0.031 µg/mL (≈ 0.0936 µM) |
| 78 µg/mL (≈ 236 µM) | O=c1[nH]c(=O)n(C[C@]2(CO)C[C@@H]2CO)cc1/C=C/Br (relative stereo) [Example 15, 1-[1'α,2'β-2-bis(hydroxymethyl)cyclopropanyl-yl]methyl-5-[(E)-2-bromoethenyl]-2,4(1H,3H)-pyrimidinedione] | > 500 µg/mL | 87 µg/mL (≈ 263 µM) |
| 24.6 µg/mL (≈ 65.1 µM) | O=c1[nH]c(=O)n(C[C@]2(CO)C[C@H]2CO)cc1/C=C/I [Example 10, 1-[1'S,2'R-bis(hydroxymethyl)-cyclopropan-1'-yl]methyl-5-[(E)-2-iodoethenyl]-2,4(1H,3H)-pyrimidinedione] | 330 µg/mL (≈ 873 µM) | 0.054 µg/mL (≈ 0.143 µM) |
| 310 µg/mL (≈ 1240 µM) | C#Cc1cn(C[C@]2(CO)C[C@H]2CO)c(=O)[nH]c1=O [Example 11, 1-[1'S,2'R-bis(hydroxymethyl)-cyclopropan-1'-yl]methyl-5-ethynyl-2,4(1H,3H)-pyrimidinedione] | > 500 µg/mL | > 100 µg/mL |
| 4.3 µg/mL (≈ 15 µM) | O=c1[nH]c(=O)n(C[C@]2(CO)C[C@H]2CO)cc1/C=C/Cl [Example 7, 1-[1'S, 2'R-bis(hydroxymethyl)-cyclopropan-1'-yl]methyl-5-[(E)-2-chloroethenyl]-2,4(1H,3H)-pyrimidinedione] | > 500 µg/mL | 0.07 µg/mL (≈ 0.244 µM) |
